The results in this text go back to patent publication US20050260202A1, “Methods for producing proliferating muscle cells” (The Regents of the University of California, priority 2004, published 2005).

The subject of experiment [1] is L6 rat myoblasts. Kind of experiment: Myoblast fusion assay in L6 cells. It counts as cell-based. As to conditions: L6, differentiation conditions, PIPLC 5 U/ml. The text has this:
(§1) Actively growing C2C12, Sol8, and L6 skeletal myoblasts (ATCC) were maintained in DMEM with 10%, 20%, or 10% FBS, respectively. QM7 quail skeletal myoblasts (kindly provided by Charles Ordahl, UCSF) were maintained in M199 medium with 10% tryptose phosphate and 10% FBS. Myoblast differentiation was induced by culture of confluent monolayers in DMEM with 1% FBS for C2C12 and Sol8 cells, 2% horse serum for L6 cells, or M199 medium with 10% tryptase phosphate and 0.5% FBS for QM7 cells. For PIPLC treatment, 5 U/ml of PIPLC (Sigma) was added into the culture medium when cells reached confluence, and with daily media changes. […]
(§2) Cells were plated on cover slips, cultured under conditions described above in Example 1, and labeled with BrdU for 60 min using Labeling and Detection Kit I (Roche) according to the manufacturer's instructions. […] Immunofluorescence signals were acquired with a Nikon Microphot-FX fluorescence microscope and Spot imaging software. Nuclei from low-power (10×) images were analyzed to quantitate BrdU incorporation and myoblast fusion. Each culture stage was analyzed in triplicate, with data representing the mean of 10 high-power fields. Cell proliferation was calculated as percent BrdU-positive nuclei per field. Cell fusion was calculated as average number of DAPI staining nuclei per myotube.

In a further experiment the test system is Sca-1. In words: Sca-1 expression by immunoblot and immunostaining. It is filed as cell-based, mouse. The settings on record: C2C12 cells. The method, then: Immunoblot analysis was performed using previously described methods (Hlaing et al., J Biol Chem, 277:23794-23799, 2002). Briefly, cells were lysed by sonication in lysis buffer (50 mM Tris-HCl, pH 7.5, 150 mM NaCl, 3 mM EDTA, 3 mM EGTA, 1% SDS, 10% glycerol), boiled for 5 min, and centrifuged at 16,000×g for 2 min. Protein concentrations of supernatants were measured by BCA assay (Pierce), and equal amounts of protein (100-200 μg) were separated by SDS-polyacrylamide gel electrophoresis. Immunoblots were analyzed with 5 μg/ml monoclonal antibody against Sca-1 (Pharmingen) or β-actin (Sigma), and 1 μg/ml HRP-conjugated goat-anti mouse IgG (Bio-Rad).
To detect Sca-1, Myf5, MyoD, and myogenin in situ, wild type and stably transfected C2C12 cells were plated on cover slips, grown as described for the indicated lengths of time, and stained with either 2.5 μg/ml monoclonal anti-Sca-1 antibody (clone E13-161.7; Pharmingen) and 4 μg/ml FITC-conjugated goat anti-rat IgG (Pharmingen), or 10 μg/ml rabbit polyclonal anti-Myf5, anti-MyoD, or anti-myogenin antibody (Santa Cruz Biotechnology) and 2 μg/ml FITC-conjugated goat anti-rabbit IgG (Molecular Probes), as previously described (Liu et al., Cell Biochem Biophys, 39:119-131, 2003).

Experiment [2] concerns Sol8 murine myoblasts. In words: Myoblast fusion assay in Sol8 cells. It counts as cell-based, mouse. As to conditions: Sol8, differentiation conditions, PIPLC 5 U/ml.
Text: as §1, §2

The subject of experiment [3] is C2C12 myoblasts. In words: BrdU incorporation (cell proliferation) in C2C12 cells. As to conditions: C2C12, differentiation conditions, PIPLC 5 U/ml. It is filed as cell-based, mouse.
Text: as §1, §2
Background: Incorporation of labelled thymidine or its analogues reports DNA synthesis.

For experiment [4], the system named is QM7 avian myoblasts. In words: Myoblast fusion assay in QM7 cells. It is filed as cell-based, quail. As to conditions: QM7, differentiation conditions, PIPLC 5 U/ml.
Text: as §1, §2

Experiment [5] has as its system L6 rat myoblasts. In words: BrdU incorporation in L6 cells. It is filed as cell-based. The settings on record: L6, differentiation conditions, PIPLC 5 U/ml.
Text: as §1, §2

Experiment [6] concerns QM7 avian myoblasts. Kind of experiment: BrdU incorporation in QM7 cells. It is filed as cell-based, quail. The settings on record: QM7, differentiation conditions, PIPLC 5 U/ml.
Text: as §1, §2

Experiment [7] deals with C2C12 myoblasts. Kind of experiment: Myoblast fusion assay in C2C12 cells. The settings on record: C2C12, differentiation conditions, PIPLC 5 U/ml. It counts as cell-based, mouse.
Text: as §1, §2

For experiment [8], the system named is Sol8 murine myoblasts. In words: BrdU incorporation in Sol8 cells. It is filed as cell-based, mouse. The settings on record: Sol8, differentiation conditions, PIPLC 5 U/ml.
Text: as §1, §2

In another experiment the test system is C2C12 cells. Kind of experiment: Fyn mutant assay: GFP-positive myoblasts to myotubes. It is filed as cell-based, mouse. As to conditions: five days in differentiation medium. From the text:
This example describes the expression of wild type and mutant Fyn proteins to analyse the role of Fyn in Sca-1-mediated myogenesis. Briefly, a 1615 bp fragment of pCMV-FynDN (Ko et al., J. Biol Chem, 277:46085-46092, 2002), containing the full-length, dominant negative K299M mutant of mouse Fyn, was PCR-amplified using primers 5′-TTATGCGGCC GCATGGGCTGTG TGCAATGTAAGG-3′ (SEQ ID NO:7) and 5′-GCATGCATGC TACAGGTTT TCACCAGGTT GG-3′ (SEQ ID NO:8) and cloned into the NotI/SphI sites of pIRES-hrGFP-1a (Stratagene). The pCMV-FynDN plasmid was kindly provided by Marilyn Resh (Sloan-Kettering Cancer Center). Similarly, a 1.6 kb BamHI fragment of Fyn-Y531F (Maulon et al., Oncogene, 20:1964-1972, 2001), containing the full-length, constitutively active Y531F mutant of mouse Fyn, was cloned into the BamHI site of pIRES-hrGFP-1a (Stratagene). The Fyn-Y531F DNA was generously provided by Patrick Auberger (INSERM). […] Expression of mutants and GFP was determined by immunoblot of whole cell lysates from transfected C2C12 cells with anti-Fyn antibody (Santa Cruz Biotechnology), and immunofluorescence detection of GFP in live cells. […] Data was acquired with a Nikon Microphot-FX fluorescence microscope and Spot imaging software. […] The effect of Fyn mutants on cell fusion was measured as the ratio of GFP-positive mononuclear myoblasts to GFP-positive myotubes (cells with 2 or more nuclei).

Experiment [9] deals with murine Sca-1 (stem cell antigen-1) (murine) (UniProt P05533). In words: cell-based or functional assay.
Chain of UniProt P05533 (P05533 27-112 limits assumed): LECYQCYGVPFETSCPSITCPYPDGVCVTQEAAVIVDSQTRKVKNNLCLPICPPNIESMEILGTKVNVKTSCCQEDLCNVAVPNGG

With “phosphatidylinositol-specific phospholipase-C [PIPLC]”, the myoblast fusion is listed as 2±1 nuclei/myotube in the experiment on L6 rat myoblasts [1], 5±1 nuclei/myotube in the experiment on Sol8 murine myoblasts [2], 1±0.2 nuclei/myotube in the experiment on QM7 avian myoblasts [4] and 3±1 nuclei/myotube in the experiment with C2C12 myoblasts [7]. The “removal of Sca-1 from cell surface” value with Sca-1 is recorded as “strips Sca-1 from the surface”. Further, the BrdU incorporation came to 37±2 % BrdU positive nuclei in the experiment with C2C12 myoblasts [3], 20±2 % BrdU positive nuclei in the experiment with L6 rat myoblasts [5], 48±5 % BrdU positive nuclei in the experiment with QM7 avian myoblasts [6] and 18±2 % BrdU positive nuclei in the experiment with Sol8 murine myoblasts [8].

On to “dominant-negative mutant of Fyn: Full-length dominant negative K299M mutant of mouse Fyn, co-expressed with GFP from pIRES-hrGFP-1a”, for which the “ratio of transfected myoblasts to myotubes” value in the experiment with C2C12 cells (Sca-1 antisense-expressing cells) was 2.3+/−0.7.

Regarding “constitutively active form of Fyn: Full-length constitutively active Y531F mutant of mouse Fyn, co-expressed with GFP from pIRES-hrGFP-1a”, in the experiment on C2C12 cells (wild type C2C12 cells), the “ratio of transfected myoblasts to myotubes” value is 4.9+/−1.7.

In the case of “monoclonal rat anti-Sca-1 antibody, clone E13-161.7 (Pharmingen)”, in experiment [9], the BrdU positive nuclei (proliferation), E13-161.7 and D7 in combination versus untreated (% BrdU positive nuclei) was determined as 11; the nuclei per myotube (myoblast fusion), E13-161.7 and D7 in combination versus untreated (nuclei per myotube) is 14.

On to “monoclonal anti-Sca-1 antibody, clone D7 (Pharmingen)”, for which, in experiment [9], the BrdU positive nuclei (proliferation), E13-161.7 and D7 in combination versus untreated (% BrdU positive nuclei) was 11; the nuclei per myotube (myoblast fusion), E13-161.7 and D7 in combination versus untreated (nuclei per myotube) was 14.
